From patent publication US20020022059A1, “Water treatment process” (priority 1996, published 2002)

Columns and labels:
[1] = pH 7, or more alkaline water
From the text: Since the incoming raw water most often has a pH of 7 or above, this causes the crystals to acquire a coating of copper hydroxide that inhibits dissolution of the blue vitriol crystals into the water.

algae bloom = assay: Application of algicide-flocculant treatment against an algae bloom in a South Texas water plant; settings: clarifier

## O.O.O.O.O.O=S(=O)([O-])[O-].[Cu+2] [blue vitriol crystals, cupric sulfate pentahydrate]
[1]
  dissolution in water: do not dissolve very well
Algae bloom
  outcome of algae bloom: had battled an algae bloom
